# Measured values published in patent publication US20120230970A1, “METHOD FOR TREATING PERVASIVE D[…]” (CUREMARK, LLC, priority 1999, published 2012).
# Tests used:
# autistic children [1] = experiment: CARS (Childhood Autism Rating Scale) test pre- and post-secretin administration (Experiment 1); format: in vivo, human; details: 16 autistic children; 3 weeks post infusion vs pre-secretin
# Experimental: Upon determining that a given child was likely to benefit from secretin administration based on the results of the fecal chymotrypsin test, the child was administered a CARS (Childhood Autism Rating Scale) test prior to being scheduled for secretin infusion.
# For each of the 16 autistic children tested, a preferred secretin infusion process according to the present invention was performed involving the administering of 1 U/kg of body weight of Secretin-Ferring for a period of nine months at intervals of approximately 6 weeks. In addition, another CARS test was administered to each of the 16 autistic children 3 weeks post secretin administration to determine if their autism had changed post infusion.
# A preferred secretin infusion process includes the initial step of prepping an arm of the candidate child with an IV injection of saline. A test dose of 1 U of Secretin-Ferring is then administered to the child. Approximately one minute after, infusion, the child is examined for signs of allergic reaction including rash, increased heart rate, and increase of blood pressure. […] Subsequently, each child receives a 1 U/kg of body weight infusion of Secretin-Ferring approximately every 6 weeks for 9 months. It is to be understood that any commercially available form of secretin may be used. […]
# [2] = test system: children diagnosed with Autism; details: secretin given as diagnostic procedure during upper gastrointestinal endoscopy; Horvath et al. 1998; cited from earlier work
# autistic children [3] = experiment: Fecal Chymotrypsin Test after secretin infusion in autistic children (Experiments 1 and 2); format: in vivo, human; details: 6 Months Post-Secretin Administration
# Experimental: In this experiment, 16 children diagnosed as having autism were administered the following Fecal Chymotrypsin Test in accordance with an embodiment of the invention. First, approximately 2 grams of stool were collected from each child and placed in a sterile container (although it is to be understood that any quantity of stool may be collected, as 2 grams of stool is not a required amount). Each stool sample was then analyzed using, e.g., an enzymatic photospectrometry analysis as is known by those skilled in the art, to determine the level of fecal chymotrypsin in the stool. Although the enzymatic photospectrophotometry process is preferred, any suitable conventional method may be used for measuring the fecal chymotrypsin levels. The measured chymotrypsin levels of the 16 autistic children are illustrated in FIG. 13.
# After determining the chymotrypsin levels of the stools, each of these levels were compared with threshold chymotrypsin levels to determine if the child was likely to benefit from secretin administration. By way of example, with the fecal chymotrypsin tests of the stool samples being performed at 30° C., normal levels of chymotrypsin are deemed to lie above 8.4 U/gram, whereas pathologically abnormal levels are deemed to lie below 4.2 U/gram. In addition, chymotrypsin levels between 8.4 U/gram and 4.2 U/gram are considered equivocal, and further testing of the individual's fecal chymotrypsin levels over a period of time should be performed. […]
# The results of Experiment 1 are illustrated in FIGS. 1-14. For instance, approximately one week after the first secretin infusion, the fecal chymotrypsin level of each of the 16 autistic children was measured again. […]
# In this experiment, 37 autistic children with abnormal fecal chymotrypsin levels were administered secretin over the course of 6 months using the secretin infusion process described above. Their fecal chymotrypsin (FC) levels were measured weekly using the fecal chymotrypsin test described above.
# [4] = of 37 children (pre-secretin 0)
substance,measurement,setting,value
secretin,CARS component scores,autistic children [1],demonstrated improvement except for the fear component which increased
same,effect on symptoms associated with Autism,[2],ameliorating the symptoms associated with Autism
same,# Autistic Children w/Equivocal FC levels,autistic children [3]; [4],2
same,# Autistic Children w/normal FC levels,autistic children [3]; [4],34
same,# Autistic Children w/Abnormal FC levels,autistic children [3]; of 37 children (pre-secretin 37),1
